Measured values from patent US11634417B2 (Array BioPharma Inc., priority 2019, dated 2023).
Like-named read-outs stand apart in the source and are kept apart here.

Assays:
[1] = test system: ERK1/2 (Thr202/Tyr204) phosphorylation in KYSE520 cells; experiment: Cellular Phospho-p44/42 MAPK (Erk1/2) (Thr202/Tyr204) assay, In-Cell Western; type: cell-based; details: Homo sapiens
Protocol: Inhibition of ERK1/2 (Thr202/Tyr204) phosphorylation was determined by the following cellular assay, which comprises incubating cells with a compound for 1 hour and quantifying pERK signal by In-Cell Western on fixed cells and normalizing to GAPDH signal. KYSE520 cells were obtained from DSMZ and grown in RPMI supplemented with 10% fetal bovine serum, penicillin/streptomycin, 2 mM L-alanyl-L-glutamine dipeptide in 0.85% NaCl (Glutamax™), non-essential amino acids, and sodium pyruvate. Cells were plated in 96-well plates at 30,000 cells/well and allowed to attach overnight at 37° C./5% CO2. Cells were treated with compounds prepared as a 10-point, 1:3 dilution series (range: 20 μM-1 nM), with a final DMSO concentration of 0.5%. After 1 hour incubation, cells were fixed in 3.7% formaldehyde in Dulbecco's phosphate-buffered saline (“dPBS”) at room temperature for 20 minutes. Cells were then washed with dPBS and permeabilized in 100% MeOH at room temperature for 10 minutes. Following permeabilization, cells were washed in dPBS and incubated in LI-COR Blocking Buffer (LI-COR Biosciences, Cat #927-40000) for 1 hour or longer. Plates were then incubated with an antibody specific for the MEK-dependent ERK1/2 phosphorylation sites, threonine 202 and tyrosine 204 (Cell Signaling Technologies; Cat #9101), downstream of SHP2 in the MAP kinase signal transduction pathway, as well as GAPDH (Millipore; Cat #MAB374). pErk1/2 (Thr202/Tyr204) antibody was diluted in LI-COR blocking buffer containing 0.05% polysorbate-20 (Tween-20) at 1:250; GAPDH was diluted at 1:2,500. The plates were incubated overnight at 4° C. After washing with PBS/0.05% Tween-20, the cells were incubated with fluorescently-labeled secondary antibodies (Anti-rabbit-Alexa Flour680, Invitrogen Cat #A21109; Anti-mouse-IRDye800CW, Li-cor Bioscieces Cat #926-32210, both at 1:1000 dilution) for 1 hour. Cells were then washed, as above, and analyzed for fluorescence at both 680 nm and 800 nm wavelengths using the Aerius Infrared Imaging System (LI-COR Biosciences, Model 9250). Phosphorylated Erk1/2 ([…]) signal was normalized to GAPDH signal for each well. IC50 values were calculated from the normalized values using a 4-parameter fit in BioAssay software. The reported IC50 in Table 2 may be from a single assay or the mean of multiple assays.

full-length SHP2 = target: T1, full-length SHP2 (Homo sapiens, UniProt Q06124); experiment: SHP2 enzymatic assay (fluorescence intensity kinetic assay, DiFMUP hydrolysis); type: biochemical; details: 1 nM His6-tagged SHP2(2-527), 1 μM activating peptide, 50 μM DiFMUP; single assay or mean of multiple assays; read-out: Biological Example 1 IC50
T1 construct: 1 nM full-length SHP2 (His6-tagged SHP2(2-527), recombinantly expressed in E. coli and purified in-house); His6; made in house; host or cells: E. coli
T1 sequence (Q06124 2-527): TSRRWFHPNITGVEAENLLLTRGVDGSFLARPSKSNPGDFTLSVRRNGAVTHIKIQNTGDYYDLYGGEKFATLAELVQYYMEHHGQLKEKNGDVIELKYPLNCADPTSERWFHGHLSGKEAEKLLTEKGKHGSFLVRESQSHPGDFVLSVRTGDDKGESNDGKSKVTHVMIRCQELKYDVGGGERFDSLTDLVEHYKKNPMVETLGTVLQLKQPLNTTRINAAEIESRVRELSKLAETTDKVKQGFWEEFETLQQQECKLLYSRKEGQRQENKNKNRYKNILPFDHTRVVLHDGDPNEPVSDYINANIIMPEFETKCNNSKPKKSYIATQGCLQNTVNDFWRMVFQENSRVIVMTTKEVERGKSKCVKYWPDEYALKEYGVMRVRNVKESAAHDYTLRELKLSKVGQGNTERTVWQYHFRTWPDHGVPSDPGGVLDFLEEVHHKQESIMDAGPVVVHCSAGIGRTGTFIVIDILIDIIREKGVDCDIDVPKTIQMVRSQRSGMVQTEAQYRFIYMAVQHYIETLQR
Protocol: A fluorescence intensity kinetic assay was configured for full-length SHP2 that monitors the amount of 6,8-difluoro-7-hydroxy-4-methylcoumarin (“DiFMU”) formed upon hydrolysis of 6,8-difluoro-4-methylumbelliferyl phosphate (“DiFMUP”) by SHP2. […] Low control wells lacked enzyme. The assays were initiated by the addition of a mixture of SHP2 and the activating peptide, and following a 15 second mix on an orbital shaker, were read in kinetic mode for 15 minutes (30 seconds/cycle) at ambient temperature on a PerkinElmer EnVision microplate reader (kEx=355 nm, kEm=460 nm). Initial velocities (slopes of the tangents at t=0) were estimated from exponential fits to the slightly nonlinear progress curves and then were converted to percent of control (“POC”) using the following equation:
[formula] • Where: xmax Average Uninhibited Controls • Xmin Average Background A 4-parameter logistic model was the fit to the POC data for each compound. From that fit, the IC50 was estimated and is defined as the concentration of compound at which the curve crosses 50 POC.

[2] = KYSE-520, KYSE520 cells, 1 hour incubation, pERK signal normalized to GAPDH, single assay or mean of multiple assays, read-out: Biological Example 2 IC50
[3] = KYSE-520, 1 h, read-out: Biological Example 2 IC50 (nM)

For `CNc1nccc(Sc2cnc(N3CCC4(CC3)Cc3cc(C#N)ccc3[C@H]4N)nn2)c1Cl` (single isomer, unassigned) [Example 41], the IC50 [1, 2] was 19 nM and the IC50 (full-length SHP2) was 79 nM.
With `CNc1nccc(Sc2cnc(N3CCC4(CC3)Cc3cc(C#N)ccc3[C@@H]4N)nn2)c1Cl` (single isomer, unassigned) [Example 42] the IC50 [1, 2] was 813 nM and the IC50 (full-length SHP2) was 209 nM.
`COc1cnc2c(c1)[C@H](N)C1(CCN(c3ncc(Sc4ccnc(N)c4Cl)nn3)CC1)C2` (single isomer, unassigned) [Example 43] was tested, and the IC50 [1, 2] was 509 nM and the IC50 (full-length SHP2) was 142 nM.
With `COc1cnc2c(c1)[C@@H](N)C1(CCN(c3ncc(Sc4ccnc(N)c4Cl)nn3)CC1)C2` (single isomer, unassigned) [Example 44] the IC50 [1, 2] was 4 nM and the IC50 (full-length SHP2) was 37 nM.
`C[C@@H]1OCC2(CCN(c3ncc(Sc4ccnc(N)c4Cl)nn3)CC2)[C@@H]1N` [Example 1, (3S,4S)-8-(6-((2-amino-3-chloropyridin-4-yl)thio)-1,2,4-triazin-3-yl)-3-methyl-2-oxa-8-azaspiro[4.5]decan-4-amine] was tested, and the IC50 [1, 2] was 55 nM and the IC50 (full-length SHP2) was 59 nM.
Compound `C[C@@H]1OCC2(CCN(c3ncc(-c4cccc(Cl)c4Cl)nn3)CC2)[C@@H]1N` [Example 2, (3S,4S)-8-(6-(2,3-dichlorophenyl)-1,2,4-triazin-3-yl)-3-methyl-2-oxa-8-azaspiro[4.5]decan-4-amine] has an IC50 [1, 2] of 2780 nM and an IC50 (full-length SHP2) of 76 nM.
For `Nc1nccc(Sc2cnc(N3[C@H]4CC[C@H]3CC(N)C4)nn2)c1Cl` (stereo partly drawn) [Example 3, (1R,3s,5S)-8-(6-((2-amino-3-chloropyridin-4-yl)thio)-1,2,4-triazin-3-yl)-8-azabicyclo[3.2.1]octan-3-amine], the IC50 [1, 2] was 1290 nM and the IC50 (full-length SHP2) was 626 nM.
`Cc1nc(N2CCC3(CC2)CO[C@@H](C)[C@H]3N)nnc1Sc1ccnc(N)c1Cl` [Example 4, (3S,4S)-8-(6-((2-amino-3-chloropyridin-4-yl)thio)-5-methyl-1,2,4-triazin-3-yl)-3-methyl-2-oxa-8-azaspiro[4.5]decan-4-amine] gave an IC50 [1, 2] of 519 nM and an IC50 (full-length SHP2) of 114 nM.
Compound `Cc1nc(N2CCC3(CC2)CO[C@@H](C)[C@H]3N)nnc1-c1cccc(Cl)c1Cl` [Example 5, (3S,4S)-8-(6-(2,3-dichlorophenyl)-5-methyl-1,2,4-triazin-3-yl)-3-methyl-2-oxa-8-azaspiro[4.5]decan-4-amine] has an IC50 [1, 2] of 337 nM and an IC50 (full-length SHP2) of 28 nM.
For `Nc1nccc(Sc2cnc(N3CCC4(CC3)Cc3ccccc3[C@H]4N)nn2)c1Cl` [Example 6, (S)-1′-(6-((2-amino-3-chloropyridin-4-yl)thio)-1,2,4-triazin-3-yl)-1,3-dihydrospiro[indene-2,4′-piperidin]-1-amine], the IC50 [1, 3] was 2 nM.
With `C[C@@H]1OCC2(CCN(c3ncc(Sc4cccc(Cl)c4Cl)nn3)CC2)[C@@H]1N` [Example 7, (3S,4S)-8-(6-((2,3-dichlorophenyl)thio)-1,2,4-triazin-3-yl)-3-methyl-2-oxa-8-azaspiro[4.5]decan-4-amine] the IC50 [1, 2] was 89 nM and the IC50 (full-length SHP2) was 17 nM.
With `C[C@@H]1OCC2(CCN(c3ncc(Sc4ccnc5[nH]ccc45)nn3)CC2)[C@@H]1N` [Example 8, (3S,4S)-8-(6-((1H-pyrrolo[2,3-6]pyridin-4-yl)thio)-1,2,4-triazin-3-yl)-3-methyl-2-oxa-8-azaspiro[4.5]decan-4-amine] the IC50 [1, 2] was 48 nM and the IC50 (full-length SHP2) was 69 nM.
For `N[C@@H]1c2ccccc2CC12CCN(c1ncc(N3CCc4cnccc43)nn1)CC2` [Example 15, (S)-1′-(6-(2,3-dihydro-1H-pyrrolo[3,2-c]pyridin-1-yl)-1,2,4-triazin-3-yl)-1,3-dihydrospiro[indene-2,4′-piperidin]-1-amine], the IC50 (full-length SHP2) was 7950 nM.
In the case of `Nc1nccc(Sc2cnc(N3CCC4(CC3)Cc3ccccc3[C@@H]4N)nn2)c1Cl` [Example 20, (R)-1′-(6-((2-amino-3-chloropyridin-4-yl)thio)-1,2,4-triazin-3-yl)-1,3-dihydrospiro[indene-2,4′-piperidin]-1-amine], the IC50 [1, 3] is reported as 206 nM.
`C[C@@H]1OCC2(CCN(c3ncc(Sc4ccnc(N)c4F)nn3)CC2)[C@@H]1N` [Example 21, (3S,4S)-8-(6-((2-amino-3-fluoropyridin-4-yl)thio)-1,2,4-triazin-3-yl)-3-methyl-2-oxa-8-azaspiro[4.5]decan-4-amine] gave an IC50 (full-length SHP2) of 11100 nM.
`N[C@@H]1c2ccccc2CC12CCN(c1ncc([Se]c3ccccc3)nn1)CC2` [Example 40, (S)-1′-(6-(phenylselanyl)-1,2,4-triazin-3-yl)-1,3-dihydrospiro[indene-2,4′-piperidin]-1-amine] was tested, and the IC50 (full-length SHP2) was 8 nM.
In the case of `C[C@@H]1OCC2(CCN(c3ncc(Sc4ccc(N)nc4C(F)(F)F)nn3)CC2)[C@@H]1N` [Example 56, (3S,4S)-8-(6-((6-amino-2-(trifluoromethyl)pyridin-3-yl)thio)-1,2,4-triazin-3-yl)-3-methyl-2-oxa-8-azaspiro[4.5]decan-4-amine], the IC50 (full-length SHP2) is reported as 1370 nM.
`N[C@@H]1c2ccccc2CC12CCN(c1ncc(Sc3cnc4ncccn34)nn1)CC2` [Example 68, (S)-1′-(6-(imidazo[1,2-a]pyrimidin-3-ylthio)-1,2,4-triazin-3-yl)-1,3-dihydrospiro[indene-2,4′-piperidin]-1-amine] gave an IC50 (full-length SHP2) of 33 nM.
`N[C@@H]1c2ccccc2CC12CCN(c1ncc(Oc3cnc4[nH]ccc4c3)nn1)CC2` [Example 72, (S)-1′-(6-((1H-pyrrolo[2,3-b]pyridin-5-yl)oxy)-1,2,4-triazin-3-yl)-1,3-dihydrospiro[indene-2,4′-piperidin]-1-amine] gave an IC50 (full-length SHP2) of 16400 nM.
`[2H][C@@]1(N)c2ccccc2CC12CCN(c1ncc(Sc3ccnc(N)c3Cl)nn1)CC2` [Example 74, (S)-1′-(6-((2-amino-3-chloropyridin-4-yl)thio)-1,2,4-triazin-3-yl)-1,3-dihydrospiro[indene-2,4′-piperidin]-1-d-1-amine] was tested, and the IC50 [1, 3] was 1 nM.
`[2H][C@]1(N)c2ccccc2CC12CCN(c1ncc(Sc3ccnc(N)c3Cl)nn1)CC2` [Example 75, (R)-1′-(6-((2-amino-3-chloropyridin-4-yl)thio)-1,2,4-triazin-3-yl)-1,3-dihydrospiro[indene-2,4′-piperidin]-1-d-1-amine] gave an IC50 [1, 3] of 100 nM.
In the case of `Nc1nccc(Sc2cnc(N3C4CCC3CC3(Cc5ccccc5[C@H]3N)C4)nn2)c1Cl` (stereo partly drawn) [Example 78, (1′S)-8-(6-((2-amino-3-chloropyridin-4-yl)thio)-1,2,4-triazin-3-yl)-1′,3′-dihydro-8-azaspiro[bicyclo[3.2.1]octane-3,2′-inden]-1′-amine], the IC50 (full-length SHP2) is reported as 15000 nM.
